Test results taken from patent publication US20020051978A1, “Methods and compositions for the identification, assessment, prevention and therapy of human cancers” (priority 2000, published 2002).
Like-named read-outs stand apart in the source and are kept apart here.

Legend:
[1] = tested on: 60 cancer cell lines (NCI 60 cancer cell line series); test: NCI-DTP in vitro cancer screen, sulforhodamine B (SRB) growth inhibition, 48 hour exposure; format: cell-based, human; parameters: key to sensitivity class Ovarian OVCAR-8 CL6005 / sensitivity class Ovarian SK-OV-3 CL6011 / sensitivity class Prostate DU-145 CL11003 / sensitivity class NSCLC NCI-H522 CL1003 / sensitivity class Ovarian IGROV1 CL6010 / sensitivity class Ovarian OVCAR-4 CL6002 / sensitivity class Prostate PC-3(I) CL11001 / sensitivity class Renal A498 CL9013 / sensitivity class Renal SN12C CL9008: sensitivity class: 1 = Low, 2 = Medium, 3 = High
Procedure, shortened: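 Values come from the NCI-DTP screen database: -log GI50, the concentration giving 50% growth inhibition, derived from SRB cell-mass dose-response curves. Each line seeded at its own density, treated day 1 at five ten-fold-spaced doses in duplicate wells, stained after 48 h.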

[2] = tested on: 60 cancer cell lines (NCI 60 cancer cell line series); details: cited from earlier work

In the case of `COc1cc([C@@H]2c3cc4c(cc3[C@@H](O[C@@H]3O[C@@H]5CO[C@@H](C)O[C@H]5[C@H](O)[C@H]3O)[C@H]3COC(=O)[C@H]23)OCO4)cc(OC)c1O` [Etoposide], the “classification of cell line as Low(1), Medium(2) or High(3) sensitivity to compound” value (“classification of cell line” below) ([1]; Breast BT-549 (CL5013)) was 2, the “classification of cell line” value ([1]; Breast HS-578T CL5006) was 3 and the “classification of cell line” value ([1]; Breast MCF7(I) (CL5001)) was 2. The “classification of cell line” value ([1]; Breast MCF7/ADRr (CL5002)) was 1, the “classification of cell line” value ([1]; Breast MDA-MB-231 CL5005) was 2 and the “classification of cell line” value ([1]; Breast MDA-MB-435 (CL5011)) was 2. The “classification of cell line” value ([1]; Breast MDA-N CL5012) was 3, the “classification of cell line” value ([1]; Breast T-47D (CL5014)) was 3 and the “classification of cell line” value ([1]; CNS SF-268 CL12014) was 2. The “classification of cell line” value ([1]; CNS SF-295 CL12015) was 2, the “classification of cell line” value ([1]; CNS SF-539 CL12016) was 2 and the “classification of cell line” value ([1]; CNS SNB-19 (CL12002)) was 2. The “classification of cell line” value ([1]; CNS SNB-75(I) CL12005) was 2, the “classification of cell line” value ([1]; CNS U251(I) CL12009) was 2 and the “classification of cell line” value ([1]; Colon COLO-250 CL4010) was 1. For the same compound, the “classification of cell line” value ([1]; Colon HCC-2998 (CL4002)) was 2, the “classification of cell line” value ([1]; Colon HCT-15 CL4015) was 2 and the “classification of cell line” value ([1]; Colon HCT-116 (CL4003)) was 2. For the same compound, the “classification of cell line” value ([1]; Colon HT29(I) CL4001) was 1, the “classification of cell line” value ([1]; Colon KM12 (CL4017)) was 2 and the “classification of cell line” value ([1]; Colon SW-620 (CL4009)) was 2. For the same compound, the “classification of cell line” value ([1]; Leukemia CCRF-CEM(I) (CL7003)) was 2, the “classification of cell line” value ([1]; Leukemia HL-60(I) (CL7008)) was 2 and the “classification of cell line” value ([1]; Leukemia K562(I) CL7005) was 2. For the same compound, the “classification of cell line” value ([1]; Leukemia MOLT-4 (CL7006)) was 3, the “classification of cell line” value ([1]; Leukemia RPMI-8226(I) (CL7010)) was 2 and the “classification of cell line” value ([1]; Leukemia SR CL7019) was 3. For the same compound, the “classification of cell line” value ([1]; Melanoma LOX IMVI CL10001) was 2, the “classification of cell line” value ([1]; Melanoma M14 (CL10014)) was 3 and the “classification of cell line” value ([1]; Melanoma MALME-3M CL10002) was 2. The “sensitivity class NSCLC NCI-H23(I) CL1001” value ([1]; cell line NSCLC NCI-H23(I), CL1001) was 2, the “sensitivity class NSCLC NCI-H332M CL1017” value ([1]; cell line NSCLC NCI-H332M, CL1017) was 1 and the “sensitivity class NSCLC NCI-H460 CL1021” value ([1]; cell line NSCLC NCI-H460, CL1021) was 3. For the same compound, the “sensitivity class NSCLC NCI-H522 CL1003” value ([1]; cell line NSCLC NCI-H522, CL1003) was 2, the “sensitivity class Ovarian IGROV1 CL6010” value ([1]; cell line Ovarian IGROV1, CL6010) was 1 and the “sensitivity class Ovarian OVCAR-3 CL6001” value ([1]; cell line Ovarian OVCAR-3, CL6001) was 1. The “sensitivity class Ovarian OVCAR-4 CL6002” value ([1]; cell line Ovarian OVCAR-4, CL6002) was 1, the “sensitivity class Ovarian OVCAR-5 CL6003” value ([1]; cell line Ovarian OVCAR-5, CL6003) was 1 and the “sensitivity class Ovarian OVCAR-8 CL6005” value ([1]; cell line Ovarian OVCAR-8, CL6005) was 2. The “sensitivity class Ovarian SK-OV-3 CL6011” value ([1]; cell line Ovarian SK-OV-3, CL6011) was 2, the “sensitivity class Prostate DU-145 CL11003” value ([1]; cell line Prostate DU-145, CL11003) was 3 and the “sensitivity class Prostate PC-3(I) CL11001” value ([1]; cell line Prostate PC-3(I), CL11001) was 3. For the same compound, the “sensitivity class Renal 786-O CL9018” value ([1]; cell line Renal 786-O, CL9018) was 2, the “sensitivity class Renal A498 CL9013” value ([1]; cell line Renal A498, CL9013) was 2 and the “sensitivity class Renal ACHN CL9023” value ([1]; cell line Renal ACHN, CL9023) was 3. The “sensitivity class Renal CAKI-1 CL9015” value ([1]; cell line Renal CAKI-1, CL9015) was 2, the “sensitivity class Renal RXF-393 CL9016” value ([1]; cell line Renal RXF-393, CL9016) was 2 and the “sensitivity class Renal SN12C CL9008” value ([1]; cell line Renal SN12C, CL9008) was 2. The “sensitivity class Renal TK10 CL9024” value ([1]; cell line Renal TK10, CL9024) was 2, the “sensitivity class Renal UO-31 CL9004” value ([1]; cell line Renal UO-31, CL9004) was 1 and the “-Log (GI50)” value ([2]; Breast BT-549 (CL5013)) was 5.6. For the same compound, the “-Log (GI50)” value ([2]; Breast HS-578T CL5006) was 6.1, the “-Log (GI50)” value ([2]; Breast MCF7(I) (CL5001)) was 5.4 and the “-Log (GI50)” value ([2]; Breast MCF7/ADRr (CL5002)) was 3.9. The “-Log (GI50)” value ([2]; Breast MDA-MB-231 CL5005) was 5.8, the “-Log (GI50)” value ([2]; Breast MDA-MB-435 (CL5011)) was 4.5 and the “-Log (GI50)” value ([2]; Breast MDA-N CL5012) was 6.0. For the same compound, the “-Log (GI50)” value ([2]; Breast T-47D (CL5014)) was 6.0, the “-Log (GI50)” value ([2]; CNS SF-268 CL12014) was 4.8 and the “-Log (GI50)” value ([2]; CNS SF-295 CL12015) was 5.0. For the same compound, the “-Log (GI50)” value ([2]; CNS SF-539 CL12016) was 5.2, the “-Log (GI50)” value ([2]; CNS SNB-19 (CL12002)) was 4.8 and the “-Log (GI50)” value ([2]; CNS SNB-75(I) CL12005) was 4.8. For the same compound, the “-Log (GI50)” value ([2]; CNS U251(I) CL12009) was 5.2, the “-Log (GI50)” value ([2]; Colon COLO-250 CL4010) was 4.2 and the “-Log (GI50)” value ([2]; Colon HCC-2998 (CL4002)) was 4.7. The “-Log (GI50)” value ([2]; Colon HCT-15 CL4015) was 4.5, the “-Log (GI50)” value ([2]; Colon HCT-116 (CL4003)) was 4.6 and the “-Log (GI50)” value ([2]; Colon HT29(I) CL4001) was 4.2. The “-Log (GI50)” value ([2]; Colon KM12 (CL4017)) was 4.5, the “-Log (GI50)” value ([2]; Colon SW-620 (CL4009)) was 4.9 and the “-Log (GI50)” value ([2]; Leukemia CCRF-CEM(I) (CL7003)) was 5.6. The “-Log (GI50)” value ([2]; Leukemia HL-60(I) (CL7008)) was 5.7, the “-Log (GI50)” value ([2]; Leukemia K562(I) CL7005) was 4.6 and the “-Log (GI50)” value ([2]; Leukemia MOLT-4 (CL7006)) was 6.0. The “-Log (GI50)” value ([2]; Leukemia RPMI-8226(I) (CL7010)) was 5.4, the “-Log (GI50)” value ([2]; Leukemia SR CL7019) was 6.7 and the “-Log (GI50)” value ([2]; Melanoma LOX IMVI CL10001) was 5.3. For the same compound, the “-Log (GI50)” value ([2]; Melanoma M14 (CL10014)) was 6.1, the “-Log (GI50)” value ([2]; Melanoma MALME-3M CL10002) was 4.7 and the “-Log (GI50)” value ([2]; NCSLC NCI-H522 CL1003) was 5.1. The “-Log (GI50)” value ([2]; NSCLC NCI-H23(I) CL1001) was 5.1, the “-Log (GI50)” value ([2]; NSCLC NCI-H332M CL1017) was 3.8 and the “-Log (GI50)” value ([2]; NSCLC NCI-H460 CL1021) was 6.0. For the same compound, the “-Log (GI50)” value ([2]; Ovarian IGROV1 CL6010) was 4.2, the “-Log (GI50)” value ([2]; Ovarian OVCAR-3 CL6001) was 4.2 and the “-Log (GI50)” value ([2]; Ovarian OVCAR-4 CL6002) was 3.8. For the same compound, the “-Log (GI50)” value ([2]; Ovarian OVCAR-5 CL6003) was 4.3, the “-Log (GI50)” value ([2]; Ovarian OVCAR-8 CL6005) was 4.8 and the “-Log (GI50)” value ([2]; Ovarian SK-OV-3 CL6011) was 4.5. For the same compound, the “-Log (GI50)” value ([2]; Prostate DU-145 CL11003) was 6.1, the “-Log (GI50)” value ([2]; Prostate PC-3(I) CL11001) was 6.2 and the “-Log (GI50)” value ([2]; Renal 786-O CL9018) was 5.9. The “-Log (GI50)” value ([2]; Renal A498 CL9013) was 4.7, the “-Log (GI50)” value ([2]; Renal ACHN CL9023) was 6.1 and the “-Log (GI50)” value ([2]; Renal CAKI-1 CL9015) was 5.2. For the same compound, the “-Log (GI50)” value ([2]; Renal RXF-393 CL9016) was 4.8, the “-Log (GI50)” value ([2]; Renal SN12C CL9008) was 5.0 and the “-Log (GI50)” value ([2]; Renal TK10 CL9024) was 5.3. For the same compound, the “-Log (GI50)” value ([2]; Renal UO-31 CL9004) was 4.1.
